Results: article PMC11312998, “Molecular Pro-Apoptotic Activities of Flavanone Derivatives in Cyclodextrin Complexes: New Implications for Anticancer Therapy” (International Journal of Molecular Sciences, 2024)

How the values were obtained:
Hec-1-A = assay: Plasma membrane fluidity, TMA-DPH fluorescence anisotropy; type: cell-based, human; settings: IC50 concentration, 24 h
Procedure: (§1) Changes in plasma membrane fluidity were determined by fluorescence spectroscopy and two fluorescent probes located at different depths of the lipid bilayer: TMA-DPH ((1-(4-Trimethylammoniumphenyl)-6-Phenyl-1,3,5-Hexatriene p-Toluene sulfonate, Sigma-Aldrich; St. Louis, MO, USA) and DAUDA (11-[5-(Dimethylamino)-1-naphthalenesulfonylamino] undecanoic acid, Sigma-Aldrich, St. Louis, MO, USA). TMA-DPH is incorporated in the superficial area of the outer monolayer, while DAUDA penetrates into the deeper hydrophobic area of the membrane. The fluorescence of the probes was measured on a Perkin-Elmer spectrofluorometer (Waltham, MA, USA) with an attachment for measuring fluorescence anisotropy with parallel and perpendicular positions of the polarizers.
(§2) Cells were seeded on sterile 35 mm dishes in numbers appropriate for a given cell line. […] After 24 h incubation, the cells were trypsinized and transferred to Eppendorf tubes (0.5 mL of suspension/sample). The cell suspension was centrifuged at 2500 rpm for 5 min at 4 °C. […] Fluorescence measurements were made on a Perkin-Elmer LS-5B spectrofluorometer (MA, USA) in an attachment with a polarizer, reading the fluorescence anisotropy at an excitation wavelength λex = 365 nm and emission wavelength λem = 425 nm (TMA-DPH), as well as excitation wavelength λex = 350 nm and emission wavelength λem = 420 nm (DAUDA).

Ishikawa = assay: as above; type: cell-based, human; settings: IC50 concentration, 24 h
Procedure: as §1, §2

Compound | increase in cell membrane fluidity (TMA-DPH) (Hec-1-A) | increase in cell membrane fluidity (TMA-DPH) (Ishikawa)
COc1cccc(/C=C2/C(=O)c3ccccc3OC2c2ccccc2)c1 (centres unmarked) [Compound 3] | approximately 20% | 
O=C1/C(=C/c2ccccc2)C(c2ccccc2)Oc2ccccc21 (centres unmarked) [Compound 5] |  | approximately 20%
